Reference: patent US9255094B2, “Pyrido[4,3-B]indoles and methods of use” (Medivation Technologies, Inc., priority 2009, dated 2016)

What was measured:
[1] = molecular target: T1, human recombinant serotonin (5-Hydroxytryptamine) 5-HT6 receptor (Homo sapiens, UniProt P50406); test: Serotonin 5-HT6 radioligand binding assay ([3H]LSD); conditions: HeLa cells; for inhibition at 0.1 µM: compound at 0.1 μM, read-out: Percent Inhibition of ligand binding, Serotonin (0.1 μM) 5-HT6; for inhibition at 1 µM: compound at 1 μM, read-out: Percent Inhibition of ligand binding, Serotonin (1 μM) 5-HT6
T1 construct: expressed in transfected cells; host or cells: human HeLa cells
Protocol: (§1) Compounds of the invention were incubated with 1.5 nM [3H]Lysergic acid diethylamide (LSD) for 120 min at 37° C. […] Receptor proteins were filtered and washed, the filters were then counted to determine [3H]LSD specifically bound. Compounds were screened at 1 μM or lower, using 1% DMSO as vehicle. Biochemical assay results are presented as the percent inhibition of specific binding in Table 4.

[2] = molecular target: human recombinant histamine H1 receptor (Homo sapiens, UniProt P35367); test: Histamine H1 radioligand binding assay ([3H]Pyrilamine); conditions: receptor expressed in CHO cells; for inhibition at 0.1 µM: compound at 0.1 μM; for inhibition at 1 µM: compound at 1 μM
Method in brief: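 Membranes from CHO cells expressing the receptor, in 50 mM Tris-HCl pH 7.4 with 2 mM MgCl2, 100 mM NaCl and 250 mM sucrose, incubated with 1.2 nM [3H]pyrilamine for 180 min at 25° C; nonspecific binding defined with 1 μM pyrilamine.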

[3] = molecular target: human recombinant serotonin (5-Hydroxytryptamine) 5-HT7 receptor (Homo sapiens, UniProt P34969); test: Serotonin 5-HT7 radioligand binding assay ([3H]LSD); conditions: 5.5 nM [3H]LSD, CHO cells; for inhibition at 0.1 µM: compound at 0.1 μM, read-out: Percent Inhibition of ligand binding, Serotonin (0.1 μM) 5-HT7; for inhibition at 1 µM: compound at 1 μM, read-out: Percent Inhibition of ligand binding, Serotonin (1 μM) 5-HT7
Protocol: as §1, with “of” for “of the”, “5.5” for “1.5”, “[^3H] Lysergic” for “[3H]Lysergic”, “2 h” for “120 min”, “25°” for “37°”, “[^3H]LSD” for “[3H]LSD”

[4] = molecular target: T2, human recombinant adrenergic α2A receptor (Homo sapiens, UniProt P08913); test: Adrenergic α2A radioligand binding assay ([3H]MK-912); conditions: 1 nM [3H]MK-912, insect Sf9 cells; for inhibition at 0.1 µM: compound at 0.1 μM, read-out: Percent Inhibition of ligand binding, Adrenergic (0.1 μM) a2A; for inhibition at 1 µM: compound at 1 μM, read-out: Percent Inhibition of ligand binding, Adrenergic (1 μM) a2A
T2 construct: expressed in transfected cells; host or cells: insect Sf9 cells
T2 sequence (P08913 1-465): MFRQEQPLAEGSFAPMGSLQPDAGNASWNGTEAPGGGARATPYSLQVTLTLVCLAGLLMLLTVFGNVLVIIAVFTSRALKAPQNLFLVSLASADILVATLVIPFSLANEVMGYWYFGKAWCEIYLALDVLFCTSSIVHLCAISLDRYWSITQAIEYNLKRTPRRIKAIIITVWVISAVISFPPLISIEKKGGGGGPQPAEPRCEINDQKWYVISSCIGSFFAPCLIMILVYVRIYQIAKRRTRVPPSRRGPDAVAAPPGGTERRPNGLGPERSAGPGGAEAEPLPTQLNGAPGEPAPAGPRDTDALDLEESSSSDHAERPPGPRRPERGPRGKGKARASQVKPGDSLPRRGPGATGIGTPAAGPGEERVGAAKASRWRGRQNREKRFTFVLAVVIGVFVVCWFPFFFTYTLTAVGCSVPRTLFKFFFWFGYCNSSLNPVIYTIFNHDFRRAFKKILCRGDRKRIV
Protocol: To evaluate in radioligand binding assays the activity of compounds of the invention, human recombinant adrenergic α2A receptor expressed in insect Sf9 cells (Uhlen S et al. J. Pharmacol. Exp. Ther. 271:1558, 1994) in a modified Tris-HCl buffer (50 mM Tris-HCl, pH 7.4, 12.5 mM MgCl2, 2 mM EDTA) was used. Compounds of invention were incubated with 1 nM [^3H]MK-912 for 60 min at 25° C. MK912 is (2S-trans)-1,3,4,5′,6,6′,7,12b-octahydro-1′,3′-dimethyl-spiro[2H-benzofuro[2,3-a]quinolizine-2,4′(1′H)-pyrimidin]-2′(3′H)-one hydrochloride Non-specific binding was estimated in the presence of 10 μM WB-4101 (2-(2,6-dimethoxyphenoxyethyl)aminomethyl-1,4-benzodioxane hydrochloride). Receptor proteins were filtered and washed, the filters were then counted to determine [^3H]MK-912 specifically bound.

[5] = molecular target: T3, human recombinant serotonin (5-Hydroxytryptamine) 5-HT2A receptor (Homo sapiens, UniProt P28223); test: Serotonin 5-HT2A radioligand binding assay ([3H]Ketanserin); conditions: 0.5 nM [3H]Ketanserin, CHO-K1 cells; for inhibition at 0.1 µM: compound at 0.1 μM, read-out: Percent Inhibition of ligand binding, Serotonin (0.1 μM) 5-HT2A; for inhibition at 1 µM: compound at 1 μM, read-out: Percent Inhibition of ligand binding, Serotonin (1 μM) 5-HT2A
T3 construct: expressed in transfected cells; host or cells: Chinese hamster ovary (CHO-K1) cells
Protocol: Compounds of the invention were incubated with 0.5 nM [^3H]Ketanserin for 60 min at 25° C. Non-specific binding was estimated in the presence of 1 μM Mianserin. Receptor proteins were filtered and washed, the filters were then counted to determine [^3H]Ketanserin specifically bound. Compounds were screened at 1 μM or lower, using 1% DMSO as vehicle. Biochemical assay results are presented as the percent inhibition of specific binding in Table 4.

T1 sequence (P50406 whole entry): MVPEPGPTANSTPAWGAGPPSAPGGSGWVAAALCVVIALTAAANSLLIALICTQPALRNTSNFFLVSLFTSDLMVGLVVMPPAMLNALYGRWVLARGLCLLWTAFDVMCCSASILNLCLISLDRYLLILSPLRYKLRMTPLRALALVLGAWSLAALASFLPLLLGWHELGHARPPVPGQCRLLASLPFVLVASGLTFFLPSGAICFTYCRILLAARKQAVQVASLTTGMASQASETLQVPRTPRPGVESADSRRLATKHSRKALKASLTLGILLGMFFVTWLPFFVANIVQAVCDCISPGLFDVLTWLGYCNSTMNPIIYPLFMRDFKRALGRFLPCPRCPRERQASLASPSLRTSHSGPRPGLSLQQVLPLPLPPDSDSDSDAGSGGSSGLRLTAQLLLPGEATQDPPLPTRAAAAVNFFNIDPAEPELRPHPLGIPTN
T3 sequence (P28223 whole entry): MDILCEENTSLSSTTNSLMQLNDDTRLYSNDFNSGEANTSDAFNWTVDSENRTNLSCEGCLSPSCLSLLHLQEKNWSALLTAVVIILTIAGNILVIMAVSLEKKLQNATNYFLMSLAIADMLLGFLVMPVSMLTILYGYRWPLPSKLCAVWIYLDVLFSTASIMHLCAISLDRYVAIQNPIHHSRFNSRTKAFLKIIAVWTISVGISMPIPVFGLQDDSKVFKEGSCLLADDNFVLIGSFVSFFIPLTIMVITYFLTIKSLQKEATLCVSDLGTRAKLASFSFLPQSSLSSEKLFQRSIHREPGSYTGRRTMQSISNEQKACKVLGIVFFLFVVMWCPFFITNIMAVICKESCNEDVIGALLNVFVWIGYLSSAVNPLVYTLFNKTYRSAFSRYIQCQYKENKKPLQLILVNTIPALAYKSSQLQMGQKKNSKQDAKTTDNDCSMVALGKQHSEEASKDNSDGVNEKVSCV
human recombinant histamine H1 receptor, sequence (P35367 whole entry): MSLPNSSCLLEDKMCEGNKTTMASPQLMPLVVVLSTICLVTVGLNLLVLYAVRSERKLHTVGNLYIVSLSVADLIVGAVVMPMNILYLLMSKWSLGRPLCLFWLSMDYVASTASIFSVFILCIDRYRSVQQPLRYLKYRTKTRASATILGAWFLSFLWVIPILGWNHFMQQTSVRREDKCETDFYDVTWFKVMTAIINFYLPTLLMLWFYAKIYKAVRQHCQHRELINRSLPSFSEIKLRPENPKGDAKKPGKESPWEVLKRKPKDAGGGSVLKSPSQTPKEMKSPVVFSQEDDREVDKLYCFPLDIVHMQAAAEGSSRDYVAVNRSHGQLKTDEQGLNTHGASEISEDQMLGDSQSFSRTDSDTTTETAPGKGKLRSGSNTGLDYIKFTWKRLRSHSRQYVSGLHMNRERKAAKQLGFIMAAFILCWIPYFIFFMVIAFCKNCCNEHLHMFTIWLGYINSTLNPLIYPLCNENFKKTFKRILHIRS
human recombinant serotonin (5-Hydroxytryptamine) 5-HT7 receptor, sequence (P34969 whole entry): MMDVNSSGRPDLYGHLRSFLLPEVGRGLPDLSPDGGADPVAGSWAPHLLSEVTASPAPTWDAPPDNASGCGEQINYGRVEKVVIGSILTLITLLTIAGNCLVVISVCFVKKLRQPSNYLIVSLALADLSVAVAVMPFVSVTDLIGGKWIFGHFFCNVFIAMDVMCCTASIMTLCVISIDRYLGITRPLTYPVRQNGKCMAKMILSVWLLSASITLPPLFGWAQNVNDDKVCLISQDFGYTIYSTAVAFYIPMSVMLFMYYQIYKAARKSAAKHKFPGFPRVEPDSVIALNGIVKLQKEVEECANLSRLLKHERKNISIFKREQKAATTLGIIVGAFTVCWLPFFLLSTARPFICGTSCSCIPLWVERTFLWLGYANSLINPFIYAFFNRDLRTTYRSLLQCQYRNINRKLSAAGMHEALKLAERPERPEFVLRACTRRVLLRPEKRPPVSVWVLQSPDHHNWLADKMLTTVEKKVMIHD

| SMILES | inhibition at 0.1 µM [1] | inhibition at 0.1 µM [2] | inhibition at 0.1 µM [3] | inhibition at 0.1 µM [4] | inhibition at 0.1 µM [5] | inhibition at 1 µM [1] | inhibition at 1 µM [2] | inhibition at 1 µM [3] | inhibition at 1 µM [4] | inhibition at 1 µM [5] |
| --- | --- | --- | --- | --- | --- | --- | --- | --- | --- | --- |
| CC[C@@](O)(Cn1c2c(c3cc(C)ccc31)CN(C)CC2)c1ccncc1 [Compound 1-62, (S)-1-(2,8-Dimethyl-3,4-dihydro-1H-pyrido[4,3-b]indol-5(2H)-yl)-2-(pyridine-4-yl)butan-2-ol] | 28% | 3% | 30% | 10% | 43% | – | – | – | – | – |
| Cc1ccc2c(c1)c1c(n2CC(=O)c2ccc(F)cc2)CCN(C)C1 [Compound 1-39, 2-(2,8-dimethyl-3,4-dihydro-1H-pyrido[4,3-b]indol-5(2H)-yl)-1-(4-fluorophenyl)ethanone] | – | – | – | – | – | 62% | 86% | 95% | 88% | 98% |
| CN1CCc2c(c3cc(Cl)ccc3n2CC(=O)c2ccc(F)cc2)C1 [Compound 1-37, 2-(8-chloro-2-methyl-3,4-dihydro-1H-pyrido[4,3-b]indol-5(2H)-yl)-1-(4-fluorophenyl)ethanone] | – | – | – | – | – | 71% | 83% | 73% | 87% | 98% |
| CC[C@@](O)(Cn1c2c(c3cc(C)ccc31)CN(C)CC2)c1ccc(F)cc1 [Compound 1-66, (S)-1-(2,8-dimethyl-3,4-dihydro-1H-pyrido[4,3-b]indol-5(2H)-yl)-2-(4-fluorophenyl)butan-2-ol] | 72% | -12% | 19% | 29% | 77% | – | – | – | – | – |
| Cc1ccc2c(c1)c1c(n2CCc2ccc(C)nc2)CCN(CC(F)(F)F)C1 [Compound 1-65, 8-methyl-5-(2-(6-methylpyridin-3-yl)ethyl)-2-(2,2,2-trifluoroethyl)-2,3,4,5-tetrahydro-1H-pyrido[4,3-b]indole] | -6% | 11% | -15% | 6% | -10% | – | – | – | – | – |
| CCCC[C@](O)(Cn1c2c(c3cc(Cl)ccc31)CN(C)CC2)c1ccc(F)cc1 [Compound 1-61, (R)-1-(8-Chloro-2-methyl-3,4-dihydro-1H-pyrido[4,3-b]indol-5(2H)-yl)-2-(4-fluorophenyl)hexan-2-ol] | 68% | -7% | -12% | -7% | 81% | – | – | – | – | – |
| CC[C@](O)(Cn1c2c(c3cc(C)ccc31)CN(C)CC2)c1ccc(F)cc1 [Compound 1-60, (R)-1-(2,8-Dimethyl-3,4-dihydro-1H-pyrido[4,3-b]indol-5(2H)-yl)-2-(4-fluorophenyl)butan-2-ol] | 48% | 10% | 16% | 3% | 67% | – | – | – | – | – |
| CN1CCc2c(c3cc(Cl)ccc3n2CC(=O)c2ccc(Cl)cc2)C1 [Compound 1-38, 2-(8-chloro-2-methyl-3,4-dihydro-1H-pyrido[4,3-b]indol-5(2H)-yl)-1-(4-chlorophenyl)ethanone] | – | – | – | – | – | 57% | 91% | 81% | 90% | 100% |
| Cc1ccc2c(c1)c1c(n2CCc2ccc(C)nc2)CCN(CCCO)C1 [Compound 1-42, 3-(8-methyl-5-(2-(6-methylpyridin-3-yl)ethyl)-3,4-dihydro-1H-pyrido[4,3-b]indole-2(5H)-yl)propan-1-ol] | – | – | – | – | – | 43% | 93% | 63% | 35% | 87% |
| CC[C@](O)(Cn1c2c(c3cc(C)ccc31)CN(C)CC2)c1ccncc1 [Compound 1-63, (R)-1-(2,8-Dimethyl-3,4-dihydro-1H-pyrido[4,3-b]indol-5(2H)-yl)-2-(pyridine-4-yl)butan-2-ol] | 25% | 18% | 25% | 12% | 21% | – | – | – | – | – |
| Cc1ccc2c(c1)c1c(n2CCc2ccc(C(F)(F)F)nc2)CCNC1 [Compound 1-41, 8-methyl-5-(2-(6-(trifluoromethyl)pyridin-3-yl)ethyl)-2,3,4,5-tetrahydro-1H-pyrido[4,3-b]indole] | – | – | – | – | – | 14% | 72% | 59% | 58% | 66% |
